Assay results published in PubChem BioAssay (NCI).
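Assay format: 96-well plates, 48-hour exposure. GI50 = concentration required for 50% inhibition of growth. TGI: total growth inhibition.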

Legend:
Test in all cases: DTP human tumour cell line panel, 48 h
SF-539 CNS = tested on: SF-539 CNS
COLO 205 colon = tested on: COLO 205 colon
UACC-257 melanoma = tested on: UACC-257 melanoma
HCT-116 colon = tested on: HCT-116 colon
SK-MEL-2 melanoma = tested on: SK-MEL-2 melanoma
OVCAR-4 ovarian = tested on: OVCAR-4 ovarian
EKVX NSCLC = tested on: EKVX NSCLC
SW-620 colon = tested on: SW-620 colon
MALME-3M melanoma = tested on: MALME-3M melanoma
M14 melanoma = tested on: M14 melanoma

Compound | GI50 (SF-539 CNS) [µM] | TGI (SF-539 CNS) [µM] | GI50 (COLO 205 colon) [µM] | TGI (COLO 205 colon) [µM] | GI50 (UACC-257 melanoma) [µM] | TGI (UACC-257 melanoma) [µM] | GI50 (HCT-116 colon) [µM] | TGI (HCT-116 colon) [µM] | GI50 (SK-MEL-2 melanoma) [µM] | TGI (SK-MEL-2 melanoma) [µM] | GI50 (OVCAR-4 ovarian) [µM] | TGI (OVCAR-4 ovarian) [µM] | GI50 (EKVX NSCLC) [µM] | TGI (EKVX NSCLC) [µM] | GI50 (SW-620 colon) [µM] | TGI (SW-620 colon) [µM] | GI50 (MALME-3M melanoma) [µM] | TGI (MALME-3M melanoma) [µM] | GI50 (M14 melanoma) [µM] | TGI (M14 melanoma) [µM]
CN(C)C(=O)O[C@H]1CN[C@H](C#Cc2cc3ncnc(Nc4ccc(OCc5cccc(F)c5)c(Cl)c4)c3s2)C1 | 8.16 | > 25 | > 18.6 | > 25 | > 25 | > 25 | 12.1 | > 25 | > 25 | > 25 | 20.4 | > 25 | 1.77 | > 23 | > 25 | > 25 | 5.15 | 14.5 | > 25 | > 25
c1c[nH]c(CN2CCOCC2)n1 |  | > 100 |  | > 100 |  | > 100 |  | > 100 |  | > 100 |  | > 100 |  | > 100 |  | > 100 |  | > 100 |  | > 100
COc1ccc(C(=O)NCCN(C)C)c2nc3ccccc3nc12 |  | 17.6 |  | > 26.1 |  | 13 |  | 12.8 |  | 11.8 |  | 16.8 |  | 33.2 |  | > 30.5 |  | 6.8 |  | > 34.5
O=c1c2cc(Br)ccc2nc(CCl)n1-c1ccc(O)c([N+](=O)[O-])c1 |  | 33.5 |  | 37.8 |  | 48.2 |  |  |  | 31.1 |  | 33.4 |  | 31.4 |  | 35.2 |  | 33.4 |  | 50.2
O=C1CCCCN1CCCCC#Cc1cccc(C#Cc2cccnc2)c1 | 31.8 | > 100 | 6.88 | 21 | 17.7 | 49.6 | 4.67 | 18.4 |  |  | 13.4 | 32.1 | 23.5 | > 100 | 39.9 | > 100 | 21.7 | 79.1 | 14.3 | 34.7
O=S(=O)(CCCl)c1ccc(Cl)cc1 | 2.46 | 7.08 | 3.74 | 11.7 | 2.98 | 11.6 | 2.74 | 11.9 | 2.17 | 5.55 | 2.22 | 10.8 |  |  | 2.43 | 11.6 | 2.23 | 7.2 | 5.18 | 22.2
Cn1cc(C2=C(c3cn(C4CCN(Cc5ccccn5)CC4)c4ccccc34)C(=O)NC2=O)c2ccccc21 | 3.03 | > 100 | 3.08 | > 100 | 4.73 | > 100 | 3.03 | > 100 | 3.08 | 47.5 |  |  |  |  | 4.02 | > 100 | > 23.4 | > 100 | 4.61 | > 100
CCOC(=O)C1SC(=Nc2ccc(Cl)cc2)N=C1C (stereo unspecified) |  | 33 |  | 32.8 |  |  |  | 30.2 |  | 38.5 |  | 56.1 |  | 45.2 |  | 35.2 |  | 35.9 |  | 
O=[N+]([O-])c1ccc(Sc2c3ccccc3nc3cc(Cl)ccc23)cc1 |  |  | > 100 | > 100 | > 100 | > 100 | > 100 | > 100 | > 100 | > 100 | > 100 | > 100 | > 100 | > 100 | > 100 | > 100 | > 100 | > 100 | > 100 | > 100
C[N+](C)(C)CC1CCCCC1O (stereo unspecified) |  | > 100 |  | > 100 |  | > 100 |  | > 100 |  | > 100 |  | > 100 |  |  |  | > 100 |  |  |  | > 100
O=S(=O)(NCCCNc1nccc(-c2c(-c3ccc(F)cc3)nc3sccn23)n1)c1ccc2ccccc2c1 | > 100 | > 100 | 2.22 | 4.81 | > 100 | > 100 | 4.41 | > 100 | 6.63 | > 100 | 5.99 | > 100 |  |  | 6.4 | > 100 |  |  | 6.53 | > 100
CCOC(=O)NC(=O)c1cn(CCN2CCN(C(=O)CCCCCCCCCCC(=O)N3CCN(CCn4cc(C(=O)NC(=O)OCC)c(=O)[nH]c4=O)CC3)CC2)c(=O)[nH]c1=O |  | > 100 |  | > 100 |  | > 100 |  | > 100 |  |  |  | > 100 |  |  |  | > 100 |  | > 100 |  | > 100
CSc1nnc(COc2ccc(Cl)cc2)o1 |  | > 100 |  | > 100 |  | > 100 |  | > 100 |  |  |  | > 100 |  | > 100 |  | > 100 |  | > 100 |  | > 100
COc1cnc2c(c1)C(=O)c1c-2n(CCCN2CCN(C)CC2)c(=O)c2cc([N+](=O)[O-])ccc12 | 0.191 | 0.386 | 1.64 | 3.38 | 2.46 | 5.87 |  |  | 11 | 23.2 | 1.46 | 3.31 | 0.514 | 2.05 | 0.0227 | 1.38 |  |  | 0.131 | 0.37
O=c1cc(/C=C/c2ccccc2)[nH]c2cc3c(cc12)OCO3 |  | 4.69 |  | 6.43 |  | 97.7 |  | 13.4 |  | 9.11 |  | 30.2 |  | 25 |  | 19.2 |  |  |  | 17.1
Cc1ccccc1C(=O)N1CCN(C(=O)c2ccccc2C)CC1 |  | > 100 |  |  |  | > 100 |  | > 100 |  |  |  | > 100 |  | > 100 |  | > 100 |  |  |  | > 100
N#Cc1ccc(NC(=O)C(CC(=O)OCc2ccccc2)NC(=O)OCc2ccccc2)cc1 (stereo unspecified) |  |  | > 100 | > 100 | > 100 | > 100 | > 100 | > 100 |  | > 100 | > 100 | > 100 | > 100 | > 100 | > 100 | > 100 |  | > 100 | > 100 | > 100
